Reference: patent publication US9340513B2, “Propenoate derivatives of betulin” (GlaxoSmithKline LLC, priority 2011, dated 2016)

Tests used:
HIV-1 (strain IIIB) = test: MT4 Cell Antiviral Assay; type: cell-based; details: Human immunodeficiency virus 1, 120 h; HIV-1 strain IIIB in MT4 cells, 5 days, Cell Titer-Glo; 50% decrease in HIV-induced cytopathic effect
Description: Antiviral HIV activity and compound-induced cytotoxicity were measured in parallel based on a modified protocol of the propidium iodide based procedure in the human T-cell lymphotropic virus transformed cell line MT4. Aliquots of the test compounds were serially diluted in DMSO plated in 96-well plates. Exponentially growing MT4 cells were harvested and pelleted. Cell pellets were resuspended in fresh medium (RPMI 1640, 10% FCS, and gentamycin. Cell aliquots were infected by the addition of HIV-1 (strain IIIB) diluted to give a viral multiplicity of infection of 300×TCID50/million cells. A similar cell aliquot was diluted with medium to provide a mock-infected control. Cell infection was allowed to proceed for 1 hr at 37° C. in a tissue culture incubator with humidified 5% CO2 atmosphere. After the 1 hr incubation the virus/cell suspensions were diluted with fresh medium, and added to each well of the plate containing pre-diluted compound. Plates were then placed in a tissue culture incubator with humidified 5% CO2 for 5 days. […] The plates were analyzed in an automated plate reader for luminescence.assay. The control and standard used was efavirinz tested over a concentration range of 0.001 to 1 μM in every assay. The expected range of IC50 values for efavirinz is 0.1 to 1 nM.
The antiviral effect of a test compound is reported as an IC50, i.e. the inhibitory concentration that would produce a 50% decrease in the HIV-induced cytopathic effect. This effect is measured by the amount of test compound required to restore 50% of the cell growth of HIV-infected MT4 cells, compared to uninfected MT4 cell controls. IC50 was calculated by RoboSage, Automated Curve Fitting Program.
For each assay plate, the results (of wells containing uninfected cells or infected cells with no compound were averaged, respectively. For measurements of compound-induced cytotoxicty, results from wells containing various compound concentrations and uninfected cells were compared to the average of uninfected cells without compound treatment. Percent of cells remaining is determined by the following formula: Percent of cells remaining=(compound-treated uninfected cells/untreated uninfected cells)×100.
A level of percent of cells remaining of 79% or less indicates a significant level of direct compound-induced cytotoxicity for the compound at that concentration. When this condition occurs the results from the compound-treated infected wells at this concentration are not included in the calculation of IC50.
For measurements of compound antiviral activity, results from wells containing various compound concentrations and infected cells are compared to the average of uninfected and infected cells without compound treatment. Percent inhibition of virus is determined by the following formula: Percent inhibition of virus=(1−((ave. untreated uninfected cells−treated infected cells)/(ave. untreated uninfected cells−ave. untreated infected cells)))×100

HIV = details: cited from earlier work

Compound	IC50 (HIV-1 (strain IIIB)) [nM]	mean reduction of HIV viral load (HIV; patients with trough levels >=20 μg/mL and without key baseline Gag polymorphisms at Q369, V370 or T371) [log10/mL]	viral load reduction versus patients without Gag polymorphisms (HIV; users with Gag polymorphisms at Q369, V370 or T371)
CC(C)C1=C2[C@H]3CC[C@@H]4[C@@]5(C)CC[C@H](OC(=O)CC(C)(C)C(=O)O)C(C)(C)[C@@H]5CC[C@@]4(C)[C@]3(C)CC[C@@]2(/C=C/C(=O)N[C@@H](C)c2ccccn2)CC1=O [Example 15, 4-(((3aS,5aR,5bR,7aR,9S,11aR,11bR,13aS)-1-Isopropyl-5a,5b,8,8,11a-pentamethyl-2-oxo-3a-((E)-3-oxo-3-(((S)-1-(pyridin-2-yl)ethyl)amino)prop-1-en-1-yl)-3,3a,4,5,5a,5b,6,7,7a,8,9,10,11,11a,11b,12,13,13a-octadecahydro-2H-cyclopenta[a]chrysen-9-yl)oxy)-2,2-dimethyl-4-oxobutanoic acid]	10 to 250		
CC(C)C1=C2[C@H]3CC[C@@H]4[C@@]5(C)CC[C@H](OC(=O)CC(C)(C)C(=O)O)C(C)(C)[C@@H]5CC[C@@]4(C)[C@]3(C)CC[C@@]2(/C=C/C(=O)NC2(c3ccccc3Cl)CC2)CC1=O [Example 20, 4-(((3aS,5aR,5bR,7aR,9S,11aR,11bR,13aS)-3a-((E)-3-((1-(2-Chlorophenyl)cyclopropyl)amino)-3-oxoprop-1-en-1-yl)-1-isopropyl-5a,5b,8,8,11a-pentamethyl-2-oxo-3,3a,4,5,5a,5b,6,7,7a,8,9,10,11,11a,11b,12,13,13a-octadecahydro-2H-cyclopenta[a]chrysen-9-yl)oxy)-2,2-dimethyl-4-oxobutanoic acid]	10 to 250		
CC(C)C1=C2[C@H]3CC[C@@H]4[C@@]5(C)CC[C@H](OC(=O)CC(C)(C)C(=O)O)C(C)(C)[C@@H]5CC[C@@]4(C)[C@]3(C)CC[C@@]2(/C=C/C(=O)NC2CCCCC2)CC1=O [Example 30, 4-(((3aS,5aR,5bR,7aR,9S,11aR,11bR,13aS)-3a-((E)-3-(Cyclohexylamino)-3-oxoprop-1-en-1-yl)-1-isopropyl-5a,5b,8,8,11a-pentamethyl-2-oxo-3,3a,4,5,5a,5b,6,7,7a,8,9,10,11,11a,11b,12,13,13a-octadecahydro-2H-cyclopenta[a]chrysen-9-yl)oxy)-2,2-dimethyl-4-oxobutanoic acid]	10 to 250		
C=C(C)[C@@H]1CC[C@]2(C(=O)O)CC[C@]3(C)[C@H](CC[C@@H]4[C@@]5(C)CC[C@H](OC(=O)CC(C)(C)C(=O)O)C(C)(C)[C@@H]5CC[C@]43C)[C@@H]12 [Bevirimat]		1.3	significantly lower load reductions
CC(C)C1=C2[C@H]3CC[C@@H]4[C@@]5(C)CC[C@H](OC(=O)CC(C)(C)C(=O)O)C(C)(C)[C@@H]5CC[C@@]4(C)[C@]3(C)CC[C@@]2(/C=C/C(=O)NC2(c3ncc(Cl)cn3)CC2)CC1=O [Example 26, 4-(((3aS,5aR,5bR,7aR,9S,11aR,11bR,13aS)-3a-((E)-3-((1-(5-Chloropyrimidin-2-yl)cyclopropyl)amino)-3-oxoprop-1-en-1-yl)-1-isopropyl-5a,5b,8,8,11a-pentamethyl-2-oxo-3,3a,4,5,5a,5b,6,7,7a,8,9,10,11,11a,11b,12,13,13a-octadecahydro-2H-cyclopenta[a]chrysen-9-yl)oxy)-2,2-dimethyl-4-oxobutanoic acid]	< 10		
CC(C)C1=C2[C@H]3CC[C@@H]4[C@@]5(C)CC[C@H](OC(=O)CC(C)(C)C(=O)O)C(C)(C)[C@@H]5CC[C@@]4(C)[C@]3(C)CC[C@@]2(/C=C/C(=O)N[C@@H](C)c2ccccc2Cl)CC1=O [Example 25, 4-(((3aS,5aR,5bR,7aR,9S,11aR,11bR,13aS)-3a-((E)-3-(((S)-1-(2-Chlorophenyl)ethyl)amino)-3-oxoprop-1-en-1-yl)-1-isopropyl-5a,5b,8,8,11a-pentamethyl-2-oxo-3,3a,4,5,5a,5b,6,7,7a,8,9,10,11,11a,11b,12,13,13a-octadecahydro-2H-cyclopenta[a]chrysen-9-yl)oxy)-2,2-dimethyl-4-oxobutanoic acid]	10 to 250		
CC(C)C1=C2[C@H]3CC[C@@H]4[C@@]5(C)CC[C@H](OC(=O)CC(C)(C)C(=O)O)C(C)(C)[C@@H]5CC[C@@]4(C)[C@]3(C)CC[C@@]2(/C=C/C(=O)NC2(c3cccc(Cl)c3)CC2)CC1=O [Example 24, 4-(((3aS,5aR,5bR,7aR,9S,11aR,11bR,13aS)-3a-((E)-3-((1-(3-Chlorophenyl)cyclopropyl)amino)-3-oxoprop-1-en-1-yl)-1-isopropyl-5a,5b,8,8,11a-pentamethyl-2-oxo-3,3a,4,5,5a,5b,6,7,7a,8,9,10,11,11a,11b,12,13,13a-octadecahydro-2H-cyclopenta[a]chrysen-9-yl)oxy)-2,2-dimethyl-4-oxobutanoic acid]	< 10		
CC(C)C1=C2[C@H]3CC[C@@H]4[C@@]5(C)CC[C@H](OC(=O)CC(C)(C)C(=O)O)C(C)(C)[C@@H]5CC[C@@]4(C)[C@]3(C)CC[C@@]2(/C=C/C(=O)NCC2CCCCC2)CC1=O [Example 33, 4-(((3aS,5aR,5bR,7aR,9S,11aR,11bR,13aS)-3a-((E)-3-((Cyclohexylmethyl)amino)-3-oxoprop-1-en-1-yl)-1-isopropyl-5a,5b,8,8,11a-pentamethyl-2-oxo-3,3a,4,5,5a,5b,6,7,7a,8,9,10,11,11a,11b,12,13,13a-octadecahydro-2H-cyclopenta[a]chrysen-9-yl)oxy)-2,2-dimethyl-4-oxobutanoic acid]	< 10		
CC(C)C1=C2[C@H]3CC[C@@H]4[C@@]5(C)CC[C@H](OC(=O)CC(C)(C)C(=O)O)C(C)(C)[C@@H]5CC[C@@]4(C)[C@]3(C)CC[C@@]2(/C=C/C(=O)N[C@@H](C)c2ncccn2)CC1=O [Example 11, 4-(((3aS,5aR,5bR,7aR,9S,11aR,11bR,13aS)-1-isopropyl-5a,5b,8,8,11a-pentamethyl-2-oxo-3a-((E)-3-oxo-3-(((S)-1-(pyrimidin-2-yl)ethyl)amino)prop-1-en-1-yl)-3,3a,4,5,5a,5b,6,7,7a,8,9,10,11,11a,11b,12,13,13a-octadecahydro-2H-cyclopenta[a]chrysen-9-yl)oxy)-2,2-dimethyl-4-oxobutanoic acid]	10 to 250		
CC(C)C1=C2[C@H]3CC[C@@H]4[C@@]5(C)CC[C@H](OC(=O)CC(C)(C)C(=O)O)C(C)(C)[C@@H]5CC[C@@]4(C)[C@]3(C)CC[C@@]2(/C=C/C(=O)N[C@H](C)c2ncccn2)CC1=O [Example 10, 4-(((3aS,5aR,5bR,7aR,9S,11aR,11bR,13aS)-1-Isopropyl-5a,5b,8,8,11a-pentamethyl-2-oxo-3a-((E)-3-oxo-3-(((R)-1-(pyrimidin-2-yl)ethyl)amino)prop-1-en-1-yl)-3,3a,4,5,5a,5b,6,7,7a,8,9,10,11,11a,11b,12,13,13a-octadecahydro-2H-cyclopenta[a]chrysen-9-yl)oxy)-2,2-dimethyl-4-oxobutanoic acid]	10 to 250		
